Source: publication PMC6752817, “Identification and characterization of a novel heparan sulfate-binding domain in Activin A longest variants and implications for function” (PLoS ONE, 2019)
Entries after “also recorded” stand apart in the source; their conditions may differ.

Columns and labels:
[1] = system: Act A X1 and X2 variant transcripts in U937 cells; assay: Induction of Act A variant transcripts in U937 cells, PCR; assay type: cell-based, human
Protocol: (§1) Total RNA was isolated using TRIzol Reagent (Thermo-Fisher) following the manufacturers protocol. Five μg of glycogen (Thermo-Fisher AM9510) was added to the aqueous phase prior to the addition of isopropanol to facilitate RNA precipitation. For some experiments, RNA quantification was determined using a Nanodrop spectrophotometer. cDNA was prepared from 2 μg of purified RNA, using oligo dT as primer, supplied with the Verso cDNA synthesis kit (Thermo-Fisher # AB1453A) or SuperScript IV Reverse Transcriptase (Thermo-Fisher #18090010) following the manufactures protocol. All PCR reactions were performed using Act A specific primers and GoTaq Green Master Mix (Promega) following the manufacturers protocols. PCR reactions were optimized by gradient PCR, using an Applied Biosystems Veriti Thermal Cycler. PCR products were size fractionated on 1% agarose gels, the bands were isolated, DNA was extracted from gel slices using Micro Bio-Spin columns (Bio Rad# 7326204) and sequenced. All DNA sequencing was performed by the NAPCore Facility at CHOP.
(§2) U937 (human pro-monocytic) and THP-1 (human monocytic) cell lines were grown in RPMI containing 10% fetal bovine serum in a humidified atmosphere of 5% CO2. Cells were treated with PMA (100 ng/ml; 160 nM) for 4 hr (23) or GM-CSF (1 ng/ml) for 8 hr in RPMI containing 1% fetal bovine serum.

[2] = Solid-phase binding of biotinylated peptides (NA-HRP tetramers) to HS-coated plates; details: for Binding to substrate-bound HS: HS-coated 96-well plates, peptide tetramers with NA-HRP, PBST with 1% BSA, 2 hr, room temperature, OPD read at 450 nm; for Binding to HS in presence of heparin competitor: HS-coated plates, pre-incubation of peptide with excess soluble heparin
Protocol: Fig 6 Peptides corresponding to the novel HBD bind HS with high affinity. 96-well plates were coated with HS and incubated with tetrameric peptide complexes (HBC) for 2 hrs. Plates were washed, and bound peptides were assessed by addition of OPD substrate. A and B, schematic diagram depict the amino acid sequences of Act A- X2^13-37 and Act A- X3^259-272 peptides and their location within the full-length proteins, respectively. C, solid phase binding assays of Act A peptides to HS. […] Inset, double reciprocal plot that yields a Kd of 4 nM (n = 3) for Act A- X2^13-37.
Peptides encompassing the heparin binding domains, contained the putative Cardin-Weintraub (CW) motif and a minimum of 2 flanking amino acids on the N- and C- terminal sides of the domain. Three Glycine residues were added to the N-terminus of each peptide to provide a flexible linker between an N-terminal biotin tag and the peptide itself (See Table 6). Peptides were purified by reverse phase HPLC and peptide mass was confirmed by MALDI-TOF mass spectrometry. All peptides were synthesized and purified by Peptide 2 (Chantilly, VA). Where indicated, biotinylated peptides were oligomerized into tetramers by incubation with NAHRP (each avidin molecule binding 4 biotins ([57]) as described.
Nunc MaxiSorp flat bottom 96 well plates were coated with HS in 50 mM carbonate buffer (pH 9.4) overnight at 4°C as described. All binding assays were carried out in 1 x PBS, 0.1% tween 20 (PBST) containing 1% bovine serum albumin. Plates were incubated with peptides for a minimum of 2 hr at room temperature with gentle shaking. At the termination of the assay, the plates were washed 3 times with PBST and a final rinse with PBS. Plates were developed by addition of HRP substrate O-phenylenediamine dihydrochloride (OPD) in Citrate-Phosphate buffer (25 mM citric acid, 50 mM sodium phosphate, pH 5) and read at 450 nm in a Bio-Tek Synergy HT plate reader.

[3] = system: U937 cell surface; assay: Peptide binding to intact U937 cells, FACS; assay type: cell-based, human; details: formalin-fixed U937 cells; for Binding to U937 cell surface: biotinylated peptide complexed with NA-488, 2 hr on ice, FACS (FL1); for Binding to U937 cell surface in presence of heparin competitor: peptide complexed with NA-488, excess soluble heparin, FACS
Protocol: Fig 7 HBD peptides bind to the cell surface with avidity. A, U937 cells were incubated with peptide complexes consisting of biotinylated peptides pre-incubated with NA-488. Following incubation, the cells were washed, and bound peptide was assessed by FACS analysis. […] In contrast, Act A-X3^259-272 peptide fails to bind. Binding specificity was verified using a previously characterized peptide encompassing the high affinity HBD from BMP4. B, representative FACS plots show binding of Act A- X2^13-37 in the absence (blue line) or presence (red line) of heparin competitor. C, representative FACS plots showing binding of Act A- X2^13-37 (blue line), lack of binding by Act A-X3^259-272 (red line) and background signal generated by U937 cells alone (green line). Statistical Analysis (Student’s t test): NA488 vs ActA X2^13-37, NA488 vs BMP4: ****: P< = 0.0001, **: P< = 0.01.
U937 cells were washed with PBS and fixed with 2% buffered formalin for 20 min on ice. The cells were washed with PBS and blocked by incubation in PBS, 1% BSA for 20 min on ice. Approximately […] cells (100 μl) were incubated with peptide tetramers consisting of biotinylated peptide complexed with NA-488. Following incubation for 2 hr on ice, the cells were washed and analyzed on a BD Accuri Flow Cytometer (FL1 channel), located in the Flow Cytometry Core Laboratory at CHOP.

[4] = system: Act A X1 and X2 variant transcripts in THP1 cells; assay: Induction of Act A variant transcripts in THP1 cells, PCR; assay type: cell-based, human; details: GM-CSF 1 ng/ml for 8 hr
Protocol: as §1, §2

[5] = system: Act A expression in purified human monocytes; details: ref [41]; cited from earlier work
Protocol: It should be noted that the above transcript/protein predictions of variants are based on computational genomic analyses that were conducted initially by the MGC team using ESTs to explore the transcriptome and then subsequently confirmed by whole genome sequencing and bioinformatics. Much of the past and recent extensive literature on Act A has utilized recombinant forms of the X3 variant, but currently there is little information about the expression and structural characteristics of the X1 and X2 variants. Thus, we first asked whether these variants are expressed by myel ...

[6] = rat, in vivo, iv; cited from earlier work
Source text: As pointed out above, past and recent studies on Act A biology and function have made use of the X3 variant or the mature protein but to our knowledge, the X1 or X2 variants have not been tested. For example, Harrington et al. used recombinant Act A mature protein to clarify the structural basis by which Fs inhibits Act A signaling. […] Wang et al. carried out a detailed analysis of mechanisms involved in initiation of Act A biological activity, using the X3 ...

[7] = system: TIEG expression in THP1 cells; assay: TIEG (KLF10) mRNA induction in THP1 cells, qPCR; assay type: cell-based, human; details: 2 hr, rhAct A or conditioned medium of AD293 cells transfected with X2 or X3 constructs
Source text: Fig 4 Expression and secretion of Act A variants. Expression constructs for full length X1, X2 and X3 variants were cloned into pcDNA 3.1 and transfected into AD293 and COS1 cells. A, diagram of Act A expression cassette with His tag on the 3’ end. […] Untransfected cells are shown in lane 2. […] D, immunoblots of conditioned medium samples separated under reducing conditions and probed with anti-His tag antibody. […] The band was undetectable in conditioned medium from cells transfected with the X1 vector (lanes 1, 4 and 9) or un-transfected cells (lanes 7 and 8). Lanes 4–6 are a longer exposure of lanes 1–3. E, THP1 cells were incubated for 2 hrs with conditioned media from AD293 cells that were untransfected (U) or transfected with X2 or X3 constructs. The cells were processed for q-PCR analysis of TIEG expression, an early response gene induced by Act A and TGF-β. […]
To assess biological activity of the expressed Act A variants, THP1 cells were incubated with 3 ml of conditioned medium obtained from cells transfected with each Act A variant for 2 hr, in the absence or presences of an ActA neutralizing antibody (BioLegend # 94746) the cells were pelleted and total RNA was isolated using TRIzol Reagent as described above. Induction of Kruppel-like factor 10 (KLF10, TIEG; accession NM_005655) mRNA, an early response gene induced by Act A and TGF-β was assessed by qPCR.

[8] = system: mutant ALK2; details: ref [52]; cited from earlier work
Source text: In the musculoskeletal research field, interest in Act A biology has been re-invigorated by recent evidence of its pathogenic roles in the pediatric congenital disorder Fibrodysplasia Ossificans Progressiva (FOP). FOP is characterized by episodic formation of extraskeletal cartilage and bone tissue–a process collectively termed heterotopic ossification (HO)—at multiple sites, eventually involving much of the body. HO is preceded by local inflammation and over time, the accumulated ectopic tissue causes multiple health problems and impediments—including skeletal deformities, chron ...

[9] = PMA 100 ng/ml (160 nM) for 4 hr, semi-quantitative PCR

Molecule: CCCCCCCCCCCCCC(=O)O[C@@H]1[C@@H](C)[C@@]2(O)[C@@H](C=C(CO)C[C@]3(O)C(=O)C(C)=C[C@@H]23)[C@@H]2C(C)(C)[C@]12OC(C)=O [PMA, Phorbol 12-myristate 13-acetate, reference compound]
- Expression of Act A X1 variant transcript in U937 cells [1, 9]: undetectable
- Expression of Act A X2 variant transcript in U937 cells [1, 9]: stimulated expression of transcripts encoding the X2 variant in U937 cells; also recorded: induced expression of Act A-X2

Molecule: [B]-GGGGKKKKKEEEGEGKKK [X3^259-272]
- Binding to substrate-bound HS [2]: failed to interact with HS at any concentration tested; also recorded: failed to interact with substrate-bound HS
- Binding to substrate-bound HS ([2]; listed as Act A-X3^259-272): displays minimal binding
- Binding to U937 cell surface [3]: failed to interact with the cells; also recorded: failed to interact with substrate-bound HS or the cell surface
- Binding to U937 cell surface ([3]; listed as Act A-X3^259-272): fails to bind

Molecule: [B]-GGGLKRRRKKKTPKKKIKKSTHTKKPAR [X2^13-37, biotinylated synthetic peptide encompassing the novel HBD, identical in X1 and X2]
- Binding to substrate-bound HS [2]: interacted with HS with high affinity
- Binding to substrate-bound HS ([2]; listed as Act A- X2^13-37): binds HS with high affinity
- Binding to HS in presence of heparin competitor [2]: binding was blocked by pre-incubation of the peptide with excess heparin
- Binding to HS in presence of heparin competitor ([2]; listed as Act A- X2^13-37): its binding is blocked by addition of soluble heparin
- Binding to U937 cell surface [3]: readily and efficiently interacted with the cell surface
- Binding to U937 cell surface ([3]; listed as Act A- X2^13-37): readily binds to the cell surface
- Binding to U937 cell surface in presence of heparin competitor [3]: binding was blocked by pre-treatment with heparin
- Binding to U937 cell surface in presence of heparin competitor ([3]; listed as Act A- X2^13-37): its interaction is blocked by soluble heparin competitor

Molecule: granulocyte macrophage-colony stimulating factor [GM-CSF]
- Expression of Act A X2 variant transcript in THP1 cells [4]: upregulated the X2 variant in both cell lines; also recorded: induced expression of Act A-X2
- Expression of Act A X1 variant transcript in U937 cells ([1]; GM-CSF 1 ng/ml for 8 hr, PCR): only stimulated expression of the X1 variant in U937 cells; also recorded: induced expression of both Act A-X2 and -X1
- Expression of Act A X2 variant transcript in U937 cells ([1]; GM-CSF 1 ng/ml for 8 hr, PCR): upregulated the X2 variant in both cell lines; also recorded: induced expression of both Act A-X2 and -X1
- Induction of Act A expression in purified human monocytes [5]: induces strong expression of Act A in purified human monocytes

Molecule: mature protein: mature Act A protein (cited studies)
- Circulating half-life (t1/2 fast) [6]: 5.5 min

B1: rhAct A: commercially available recombinant human Act A (protein, UniProt P08476 311-426, looked up)
Inhibin beta A chain: GLECDGKVNICCKKQFFVSFKDIGWNDWIIAPSGYHANYCEGECPSHIAGTSGSSLSFHSTVINHYRMRGHSPFANLKSCCVPTKLRPMSMLYYDDGQNIIKKDIQNMIVEECGCS
modifications: Inhibin beta A chain
- Induction of TIEG expression (words) [7]: TIEG was rapidly upregulated
- Induction of TIEG expression (words) ([7]; listed as rhActA): up-regulated

B2: activin A (protein, UniProt P08476 311-426, looked up)
Inhibin beta A chain: B1 Inhibin beta A chain
modifications: Inhibin beta A chain
- pSMAD1/5/8 signaling through mutant ALK2 [8]: elicits pSMAD1/5/8 signaling
